Reference: ChEMBL document CHEMBL6103672, “Discovery of HMPL-306 (Ranosidenib), a New Potent and Selective Dual Inhibitor of Mutant IDH1 and 2 in Clinical Development for Cancer Treatment” (ACS Med Chem Lett, 2025)

What was measured:
[1] = Inhibition of IDH2 R140Q mutant in human U-87 MG cells incubated for 72 hrs by measuring 2-HG production by fluorescence based analysis; assay type: functional, cell-based, U-87MG ATCC; settings: Homo sapiens, U-87 MG, 72 h
[2] = Oral bioavailability in male ICR mouse at 10 mg/kg measured after 8 hrs by LC/MS/MS analysis; assay type: ADME, organism-based; settings: in vivo
[3] = Metabolic stability in male ICR mouse liver microsomes assessed as parent compound remaining at 1 uM measured after 30 mins in presence of NADPH by LC-MS analysis; assay type: ADME, Microsome; settings: read-out: Stability
[4] = Inhibition of IDH1 R132H mutant in human U-87 MG cells incubated for 72 hrs by measuring 2-HG production by fluorescence based analysis; assay type: functional, cell-based, U-87MG ATCC; settings: Homo sapiens, U-87 MG, 72 h
[5] = AUC(0 to infinity) in male ICR mouse at 10 mg/kg, po measured after 8 hrs by LC/MS/MS analysis; assay type: ADME, organism-based; settings: in vivo
[6] = Cmax in male ICR mouse at 10 mg/kg, po measured after 8 hrs by LC/MS/MS analysis; assay type: ADME, organism-based; settings: in vivo
[7] = Apparent permeability across apical to basolateral side in human Caco-2 cells at 10 uM incubated for 1 hrs by LC-MS/MS analysis
[8] = Clearance in male ICR mouse at 2.5 mg/kg, iv measured after 8 hrs by LC/MS/MS analysis; assay type: ADME, organism-based; settings: in vivo
[9] = Metabolic stability in male SD rat liver microsomes assessed as parent compound remaining at 1 uM measured after 30 mins in presence of NADPH by LC-MS analysis; assay type: ADME, Microsome; settings: Sprague-Dawley, read-out: Stability
[10] = Half life in male ICR mouse at 10 mg/kg, po measured after 8 hrs by LC/MS/MS analysis; assay type: ADME, organism-based; settings: in vivo
[11] = Volume of distribution at steady state in male ICR mouse at 2.5 mg/kg, iv measured after 8 hrs by LC/MS/MS analysis; assay type: ADME, organism-based; settings: in vivo, read-out: Vdss
[12] = AUC(0 to t) in male ICR mouse at 10 mg/kg, po measured after 8 hrs by LC/MS/MS analysis; assay type: ADME, organism-based; settings: in vivo
[13] = Apparent permeability across basolateral to apical side in human Caco-2 cells at 10 uM incubated for 1 hrs by LC-MS/MS analysis
UGT1A1 = molecular target: T1, UGT1A1 (Homo sapiens, UniProt P22309); test: Inhibition of UGT1A1 (unknown origin) at 10 uM relative to control; assay type: ADME
T1 sequence (P22309 whole entry): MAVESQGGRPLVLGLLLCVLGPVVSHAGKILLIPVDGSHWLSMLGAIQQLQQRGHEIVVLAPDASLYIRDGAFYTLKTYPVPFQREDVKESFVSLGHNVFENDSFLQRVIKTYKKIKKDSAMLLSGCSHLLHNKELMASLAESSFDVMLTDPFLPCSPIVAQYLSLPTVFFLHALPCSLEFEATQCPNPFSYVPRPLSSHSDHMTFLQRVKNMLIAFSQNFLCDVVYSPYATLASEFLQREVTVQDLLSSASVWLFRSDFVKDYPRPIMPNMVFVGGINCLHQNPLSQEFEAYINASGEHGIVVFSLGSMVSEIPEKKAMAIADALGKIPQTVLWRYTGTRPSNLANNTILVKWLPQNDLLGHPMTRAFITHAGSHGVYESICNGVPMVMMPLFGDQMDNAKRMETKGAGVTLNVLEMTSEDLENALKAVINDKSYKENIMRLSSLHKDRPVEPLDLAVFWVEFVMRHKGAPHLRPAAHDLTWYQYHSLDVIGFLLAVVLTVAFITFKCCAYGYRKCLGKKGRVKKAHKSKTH

[14] = In vivo inhibition of 2-HG in BALB/c nude mouse xenografted with human U-87 MG cells harboring IDH2 R140Q mutant at 25 mg/kg, po measured after 40 hrs post dose; assay type: functional
[15] = molecular target: Isocitrate dehydrogenase [NADP], mitochondrial (Homo sapiens, UniProt P48735, R140Q); test: Inhibition of IDH2 R140Q mutant (unknown origin) using alpha-ketoglutarate as substrate preincubated with compound for 16 hrs followed by substrate addition and measured after 1 hr in presence of NADPH by fluorescence based analysis
Sequence of Isocitrate dehydrogenase [NADP], mitochondrial (P48735 40-452 R140Q limits assumed): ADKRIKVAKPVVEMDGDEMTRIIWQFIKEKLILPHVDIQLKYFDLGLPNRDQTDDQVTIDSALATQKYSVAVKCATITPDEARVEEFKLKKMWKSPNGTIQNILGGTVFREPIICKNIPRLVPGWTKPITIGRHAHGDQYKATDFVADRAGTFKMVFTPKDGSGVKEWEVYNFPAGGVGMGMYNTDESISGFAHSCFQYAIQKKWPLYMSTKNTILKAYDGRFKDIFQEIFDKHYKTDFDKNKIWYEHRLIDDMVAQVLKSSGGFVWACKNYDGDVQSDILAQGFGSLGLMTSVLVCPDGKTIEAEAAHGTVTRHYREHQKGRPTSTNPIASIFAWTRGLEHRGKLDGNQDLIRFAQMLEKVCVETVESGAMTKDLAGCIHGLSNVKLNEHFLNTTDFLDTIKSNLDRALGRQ

Adenosine receptor A3 = molecular target: T2, Adenosine receptor A3 (Homo sapiens, UniProt P0DMS8); test: Inhibition of adenosine A3 receptor (unknown origin); assay type: toxicity
T2 sequence (P0DMS8 whole entry): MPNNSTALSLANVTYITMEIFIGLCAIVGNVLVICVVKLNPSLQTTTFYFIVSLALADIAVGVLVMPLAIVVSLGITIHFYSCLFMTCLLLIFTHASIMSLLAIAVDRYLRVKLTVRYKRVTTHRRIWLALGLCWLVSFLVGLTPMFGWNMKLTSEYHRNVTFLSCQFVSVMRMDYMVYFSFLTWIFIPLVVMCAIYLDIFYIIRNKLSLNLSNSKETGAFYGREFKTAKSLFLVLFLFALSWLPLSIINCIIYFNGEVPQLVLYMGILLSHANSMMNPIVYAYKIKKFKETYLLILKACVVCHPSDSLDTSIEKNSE

[16] = In vivo inhibition of 2-HG in BALB/c nude mouse xenografted with human U-87 MG cells harboring IDH2 R140Q mutant at 25 mg/kg, po measured after 24 hrs post dose; assay type: functional
[17] = AUC(0 to t) in male ICR mouse at 10 mg/kg, po measured upto 24 hrs by LC/MS/MS analysis; assay type: ADME, organism-based; settings: in vivo
[18] = Inhibition of IDH2 R172K mutant in human HEK293 cells incubated for 72 hrs by measuring 2-HG production by fluorescence based analysis; assay type: functional, cell-based; settings: HEK293, 72 h
[19] = Inhibition of IDH2 R140Q mutant in human TF-1 cells incubated for 72 hrs by measuring 2-HG production by fluorescence based analysis; assay type: functional, cell-based; settings: TF-1, 72 h
[20] = In vivo inhibition of 2-HG in BALB/c nude mouse xenografted with human HT-1080 cells harboring IDH1 R132C mutant at 50 mg/kg, po measured after 24 hrs post dose; assay type: functional
[21] = Inhibition of IDH1 R132C mutant in human HT-1080 cells incubated for 72 hrs by measuring 2-HG production by fluorescence based analysis; assay type: functional, cell-based; settings: HT-1080, 72 h
[22] = In vivo inhibition of 2-HG in BALB/c nude mouse xenografted with human HT-1080 cells harboring IDH1 R132C mutant at 50 mg/kg, po measured after 40 hrs post dose; assay type: functional
[23] = Inhibition of IDH1 R132H mutant in human TF-1 cells incubated for 72 hrs by measuring 2-HG production by fluorescence based analysis; assay type: functional, cell-based; settings: TF-1, 72 h
[24] = Ratio of drug concentration in brain to plasma of BALB/c nude mouse xenografted with human U-87 MG cells harboring IDH2 R140Q mutant at 50 mg/kg measured after 16 hrs by LC/MS/MS analysis; assay type: ADME, organism-based; settings: read-out: BPR
[25] = Ratio of drug concentration in brain to plasma of BALB/c nude mouse xenografted with human U-87 MG cells harboring IDH2 R140Q mutant at 50 mg/kg measured after 24 hrs by LC/MS/MS analysis; assay type: ADME, organism-based; settings: read-out: BPR

IC50 [1] [nM]	bioavailability [2] [%]	IC50 [4] [nM]	AUC(0-inf) [5] [ng·h/mL]	Cmax [6] [ng/mL]	clearance [8] [mL/min/kg]	half-life [10] [h]	Vd [11] [L/kg]	AUC(0-t) at 24 h [17] [ng·h/mL]	SMILES	further results
42	134	100	15800	4950	14.1	2	1.16		C[C@@H](Nc1nc(N[C@H](C)C(F)(F)F)nc(C2=C(F)[C@@H](O)CCC2)n1)C(F)(F)F	remaining at 0.5 h, 1 µM [3]: 86.2%; Papp A→B at 1 h, 10 µM [7]: 46.8 ×10⁻⁶ cm/s; remaining at 0.5 h, 1 µM [9]: 92.7%; AUC(0-t) at 8 h [12]: 14800 ng·h/mL; Papp B→A at 1 h, 10 µM [13]: 25.9 ×10⁻⁶ cm/s
43	95.1		23000	1870	6.9	3.3	1.72	22900	CC(C)(O)CNc1nc(Nc2ccnc(C(F)(F)F)c2)nc(-c2cccc(C(F)(F)F)n2)n1 [ENASIDENIB]	inhibition at 10 µM (UGT1A1): 76.1%; inhibition (INH) [14]: 37%; IC50 [15]: 37 nM; IC50 (Adenosine receptor A3): 12 nM; inhibition (INH) [16]: 87%; IC50 [18]: 5170 nM; IC50 [19]: 55 nM
	64.5	32	7100	1270	15.2	2.6	1.94	7090	N#Cc1ccnc(N2C(=O)CC[C@H]2C(=O)N(c2cncc(F)c2)[C@H](C(=O)NC2CC(F)(F)C2)c2ccccc2Cl)c1 [IVOSIDENIB]	inhibition in vivo at 50 mg/kg [20]: 78%; IC50 [21]: 9 nM; inhibition in vivo at 50 mg/kg [22]: 50%; IC50 [23]: 68 nM
									C[C@@H](Nc1nc(N[C@H](C)C(F)(F)F)nc(-c2cccc(Cl)n2)n1)C(F)(F)F [VORASIDENIB]	Kp at 16 h [24]: 1.4; Kp at 24 h [25]: 1.2
